Results from patent US7247611B2, “Compositions and methods for promoting internalization and degradation of urokinase-type plasminogen activator” (The Trustees of the University of Pennsylvania, priority 1997, dated 2007).
Entries after “also recorded” stand apart in the source; their conditions may differ. Values belong to the substance of their own block, whether it stands above or below them.

Experiments:
purified α2MR/LRP = assay: Solid phase binding assay of 125I-labeled ligands to immobilized purified α2MR/LRP
Description: To measure the binding of labeled ligands to α2MR/LRP, a 96-well microtiter plate was incubated with 3 micrograms per milliliter purified α2MR/LRP or with 3 micrograms per milliliter BSA in TBS containing 4 millimolar Ca^2+ overnight at 4° C. The buffer was removed, and the non-reacted sites on the plate were blocked using a blocking solution comprising TBS, 4 millimolar Ca^2+, 0.05% (v/v) Tween-20, and 3% (w/v) BSA. The wells of the plate were filled with the blocking solution and incubated for one hour at 4° C. Next, the blocking solution was removed, each well was filled with a solution comprising blocking solution and 0 or 200 nanomolar rRAP, and the plate was incubated at 4° C. for another hour. Binding of ^125I-labeled ligands to immobilized α2MR/LRP was determined as described (Higazi et al., 1996, Blood 88:542-551; Nykjaer et al., 1993, J. Biol. Chem. 268:15048-15055).

LM-TK^− cells = assay: Internalization and degradation of 125I-scuPA by LM-TK^− cells; format: cell-based
Description: LM-TK^− cells were grown overnight at 37° C. to confluence in 48-well Falcon™ Multiwell tissue culture dishes (Becton Dickinson, Lincoln Park, N.J.). Cells were prechilled on ice for one hour, washed twice with a buffer comprising TBS, 4 millimolar Ca^2+, and 3% (w/v) BSA, and incubated for one hour at room temperature with the same buffer or with buffer supplemented with either 400 nanomolar rRAP or 100 micrograms per milliliter IgG anti-α2MR/LRP. The buffer was removed, ^125I -scuPA was added to the cells, and the cells were incubated for two hours at 4° C. in the presence of 0-300 micromolar peptide, 0 or 400 nanomolar rRAP, and 0 or 100 micrograms per milliliter anti-α2MR/LRP. Unbound ligand was removed and cells were washed five times with the buffer. DMEM comprising 4 millimolar Ca^2+, 0 or 400 nanomolar rRAP, and 0 or 100 micrograms per milliliter anti-α2MR/LRP was added to the cells, and the cells were incubated for eighteen hours at 37° C. […] Briefly, to measure internalization, cells were washed twice with the buffer, a solution comprising 50 millimolar glycine 150 millimolar NaCl at pH 3.0 was added to the cells, and the cells were incubated for fifteen minutes at 4° C. to dissociate cell surface-bound ligands. […] Radioactivity in the cell extract was assessed.

[1] = system: LM-TK^− cells (α2MR^+/LRP, uPAR^−); assay: Ligand binding assay: binding of 125I-labeled scuPA, tcuPA and their suPAR complexes to LM-TK^− cells; format: cell-based; conditions: for promotion of scuPA binding to LM-TK^− cells: 1B
Description: Briefly, LM-TK^− cells were suspended in DMEM (GIBCO, Grand Island, N.Y.) containing 10% (v/v) fetal calf serum and were grown to confluence at 37° C. overnight in 96-well Falcon™ multiwell tissue culture dishes (Becton Dickinson, Lincoln Park, N.J.). The cells were chilled for one hour on ice and were washed twice with chilled binding buffer. ^125I-labeled ligands, with or without 50-fold molar excess of non-labeled ligands, were added to the cells in the presence or absence of 0-300 micromolar peptide, and the cell cultures were incubated for two hours at 4° C. The cells were washed four times with binding buffer, solubilized in 0.1 N NaOH, and the cell extract was assessed for radioactivity. […] Assays were repeated at least three times, and data presented herein represent the mean and standard deviation.

PAI-1 = biological target: T1, PAI-1 (Homo sapiens, UniProt P05121); assay: Assessment of plasminogen activator activity (inhibition of PAI-1 activity, tcuPA as substrate of PAI-1); format: biochemical; conditions: 5 nanomolar tcuPA, 200 micromolar peptide, 25 nanomolar PAI-1; FIG. 4
T1 construct: purchased American Diagnostica, Inc. (Greenwich, Conn.)
Description: A solution comprising 5 nanomolar tcuPA, 0 or 200 micromolar peptide EEIIMD (SEQ ID NO: 3), and 0 or 200 micromolar peptide REIIMD (SEQ ID NO: 4) was incubated for thirty minutes. The solution was then added to a reaction mixture comprising 25 nanomolar PAI-1, 50 nanomolar Glu-plasminogen, and 50 micromolar chromogenic substrate, and the optical density of the mixture at 405 nanometers was measured continuously, as described (Higazi et al., 1996, Blood 87:3545-3549).

scuPA-uPAR complex = scuPA-uPAR complex (Homo sapiens, UniProt P00749); assay: scuPA-uPAR complex formation; format: binding

- effect on EEIIMD-promoted binding of scuPA to purified α2MR/LRP (purified α2MR/LRP; 200 nanomolar rRAP, FIG. 5A): inhibited
Substance: rRAP: recombinant 39 kilodalton α2MR/LRP. (receptor-associated protein), inhibits ligand binding to α2MR/LRP [reference compound]
- inhibition of EEIIMD-promoted scuPA internalization and degradation by LM-TK^− cells (LM-TK^− cells; 400 nanomolar rRAP): approximately 70%
- inhibition of EEIIMD-promoted binding of scuPA to LM-TK^− cells ([1]; 400 nanomolar rRAP, FIG. 5B): approximately 70%

Substance: REIIMD [hexapeptide, amino terminal Glu of EEIIMD substituted by Arg]
- promotion of scuPA binding to LM-TK^− cells ([1]; FIG. 1A): nearly as potent a promoter of scuPA binding to LM-TK^− cells as was peptide EEIIMD

- inhibition of PAI-1 activity (PAI-1): did not inhibit PAI-1 activity
Substance: EEIIMR [hexapeptide, carboxyl terminal Asp of EEIIMD substituted by Arg; control peptide]
- scuPA-binding-promoting activity relative to that of peptide EEIIMD ([1]; LM-TK^− cells, FIG. 1A): approximately 20%

- effect on binding of tcuPA to purified α2MR/LRP (purified α2MR/LRP): had no effect
- effect on binding of the scuPA-suPAR complex to α2MR/LRP (purified α2MR/LRP): had no effect
- effect on scuPA-uPAR complex formation (scuPA-uPAR complex): did not affect
- EC50 ([1]; read-out: peptide concentration for half maximal stimulation of scuPA binding to LM-TK^− cells, FIG. 1B): ~50 µM
Substance: EEIIMD [hexapeptide homologous with amino acids 350-355 of PAI-1]
- effect on binding of scuPA to purified α2MR/LRP (purified α2MR/LRP; FIG. 5A): promoted binding of scuPA to purified α2MR/LRP
- effect on internalization and degradation of scuPA by LM-TK^− cells (LM-TK^− cells; eighteen hours at 37° C., FIG. 6): promoted both internalization and degradation; also recorded: accelerated the rate of internalization and degradation
- inhibition of PAI-1 activity (PAI-1): inhibits PAI-1 activity; also recorded: competitive inhibitor of PAI-1 binding to tcuPA
- effect on binding of tcuPA to LM-TK^− cells [1]: failed to stimulate binding of tcuPA; also recorded: had no effect
- promotion of scuPA binding to LM-TK^− cells ([1]; FIG. 1A): promoted binding
- peptide concentration giving near-maximal effect on scuPA binding to LM-TK^− cells ([1]; FIG. 1B): approximately 300 micromolar
- effect on binding of the scuPA-suPAR complex to LM-TK^− cells ([1]; FIG. 3): minimal increase
- effect on binding of the tcuPA-suPAR complex to LM-TK^− cells ([1]; FIG. 3): had no effect
- increase in the value of Bmax for scuPA binding to LM-TK^− cells ([1]; presence versus absence of the peptide, two hours at 4° C.): four-fold
- scuPA-binding-promoting effect in the presence of PAI-1 ([1]; scuPA preincubated with PAI-1, FIG. 2): identical to the effect observed in the absence of PAI-1
